Source: ChEMBL document CHEMBL3272078, “Stereochemical analogs of a muscarinic, ganglionic stimulant. 3. 2,3-Substituted bicyclo(2.2.1)hept-5-enes and -heptanes related to 4-(N-(3-chlorophenyl)carbamoyloxy)-2-butynyltrimethylammonium chloride (McN-A-343)” (J Med Chem, 1976)
Calls of active or inactive are those of the source. The rule behind the calls is not given here.

What was measured:
Format in all cases: functional, organism-based
[1] = system: Felis catus; experiment: Ganglion-stimulant activity in cat assessed as pressor response up to 1000 ug/kg, iv
[2] = system: Felis catus; experiment: Ganglion-stimulant activity in iv dosed cat assessed as depressor response
[3] = system: Felis catus; experiment: Inhibition of McN-A-343-induced pressor response in iv dosed cat

| Compound | Activity [1] | Activity [2] | inhibition [3] |
| --- | --- | --- | --- |
| C[N+](C)(C)C[C@@H]1[C@@H](COC(=O)Nc2ccc(Cl)cc2)[C@H]2C=C[C@H]1C2 | inactive | inactive | inactive |
| C[N+](C)(C)C[C@H]1[C@H]2CC[C@@H](C2)[C@@H]1COC(=O)Nc1ccc(Cl)cc1 | inactive | inactive | inactive |
| C[N+](C)(C)CC#CCOC(=O)Nc1cccc(Cl)c1 | Active | – | – |
| C[N+](C)(C)C[C@@H]1[C@H](COC(=O)Nc2ccc(Cl)cc2)[C@H]2C=C[C@H]1C2 | inactive | inactive | inactive |
| C[N+](C)(C)C[C@H]1[C@@H](COC(=O)Nc2ccc(Cl)cc2)[C@H]2C=C[C@H]1C2 | inactive | inactive | inactive |
| C[N+](C)(C)C[C@@H]1[C@H]2CC[C@@H](C2)[C@H]1COC(=O)Nc1ccc(Cl)cc1 | inactive | inactive | inactive |
| C[N+](C)(C)C[C@H]1[C@H](COC(=O)Nc2ccc(Cl)cc2)[C@H]2C=C[C@H]1C2 | inactive | inactive | inactive |
| C[N+](C)(C)C[C@@H]1[C@H]2CC[C@@H](C2)[C@@H]1COC(=O)Nc1ccc(Cl)cc1 | inactive | inactive | inactive |
| C[N+](C)(C)C[C@H]1[C@H]2CC[C@@H](C2)[C@H]1COC(=O)Nc1ccc(Cl)cc1 | inactive | inactive | inactive |
